The values below are quoted from earlier work in US20120115745A1, “METHODS FOR PREDICTING SENSITIVITY TO TREATMENT WITH A TARGETED TYROSINE KINASE INHIBITOR” (priority 2010, published 2012).

For orientation: pIC50 means −log10 of the IC50, conventionally taken in molar units.

Data set [1] addresses unrelated receptor tyrosine kinases, soluble tyrosine kinases and serine/threonine kinases. To be noted: less activity than against VEGF and PDGF receptor families.
The test system of data set [2] is tumor cells that are dependent on mutant, constitutively active, FLT3 and KIT kinases.

Structures are written as SMILES. pIC50: −log10 of the molar value.

Consider `Cc1ccc(F)c(NC(=O)Nc2ccc(-c3cccc4[nH]nc(N)c34)cc2)c1` [ABT-869, N-(4-(3-amino-1H-indazol-4-yl)phenyl)-N′-(2-fluoro-5-methylphenyl)urea], for which the pIC50 in data set [1] is below 6.00. The “anti-proliferative and apoptotic effects on tumor cells” value in data set [2] is “potent anti-proliferative and apoptotic effects”.
